System: HBV
Test: Therapeutic effect on HepG2-hNTCP 2B1 infected by HBV (drug from day 6 after infection)
Type: cell-based, hepatitis B virus
Conditions: drug treatment from 6 days after HBV infection to day 12, Palovarotene at high concentrations (p<0.05), ETV 1 μM, vs blank group
Procedure: This experiment was carried out in a 24-well culture plate. […] About 1.5×10^5 HepG2-hNTCP 2B1 cells were plated in each well, and 500 μL of medium B was added to each well. After the cells adhered, medium A was used for replacement to perform the induction with Doxycycline during the whole experiment.
4 Days after the induction with Doxycycline, HBV infection was performed, and the amount of HBV in each well was 100 MOI. Before infection, HBV was diluted in medium C to obtain HBV solution, and the infection volume was 250 μL per well. During infection, the cell supernatant was first removed by suction, the HBV solution was added to the cells, and the cells were incubated for 24 hours, then the supernatant was collected as the sample of Day 0. Then the cells were washed three times with PBS, and fresh medium C was used for replacement. After that, the supernatant was collected every two days for detection, fresh medium C was used for replacement. On the 6th day, fresh drug-containing medium A was used for replacement to start drug treatment, then the supernatant was collected every two days for detection, and fresh drug-containing medium A was used for replacement, until the 12th day, all the supernatant and cells were collected for relevant detection. The detection items included HBsAg, HBeAg, HBV DNA, HBV cccDNA, and for the detection method, please refer to Example 1.

C=C1[C@H](CO)[C@@H](O)C[C@@H]1n1cnc2c(=O)[nH]c(N)nc21 [ETV, Entecavir]
no significant difference: HBeAg | level of HBV DNA | level of HBV cccDNA

— patent US12569468B2, “Use of palovarotene in treatment against HBV virus” (YANG SHENG TANG COMPANY, LTD., priority 2020, dated 2026)
